Values after ≈ are worked out from the molar mass of the structure shown. Like-named read-outs stand apart in the source and are kept apart here.
Tests used:
Escherichia coli EC14 = test: standard agar-dilution MIC assay; format: cell-based
Experimental: (§1) The MIC's in Table III were determined by standard agar-dilution assays. The MIC's in Table IV were obtained using conventional brothdilution microtiter tests.

[1] = test system: Haemophilus influenzae 76; test: standard agar-dilution MIC assay; format: cell-based; conditions: Haemophilus influenzae, 76
Experimental: as §1

[2] = test system: Haemophilus influenzae C.L.; test: standard agar-dilution MIC assay; format: cell-based; conditions: Haemophilus influenzae
Experimental: as §1

[3] = test system: Klebsiella pneumoniae X68; test: standard agar-dilution MIC assay; format: cell-based; conditions: Klebsiella pneumoniae, X68
Experimental: as §1

[4] = test system: Pseudomonas aeruginosa X239; test: standard agar-dilution MIC assay; format: cell-based; conditions: Pseudomonas aeruginosa, X239
Experimental: as §1

[5] = test system: Staphylococcus aureus V41; test: standard agar-dilution MIC assay; format: cell-based; conditions: Staphylococcus aureus, V41
Experimental: as §1

[6] = test system: Staphylococcus aureus X1.1; test: standard agar-dilution MIC assay; format: cell-based; conditions: Staphylococcus aureus, X1.1
Experimental: as §1

[7] = test system: Staphylococcus aureus X400; test: standard agar-dilution MIC assay; format: cell-based; conditions: Staphylococcus aureus, X400
Experimental: as §1

[8] = test system: Staphylococcus epidermidis 222; test: standard agar-dilution MIC assay; format: cell-based; conditions: Staphylococcus epidermidis, 222
Experimental: as §1

[9] = test system: Staphylococcus epidermidis EPI1; test: standard agar-dilution MIC assay; format: cell-based; conditions: Staphylococcus epidermidis, EPI1
Experimental: as §1

[10] = test system: Streptococcus Group D 9960; test: standard agar-dilution MIC assay; format: cell-based; conditions: GROUPD9960, read-out: MIC
Experimental: as §1

[11] = test system: Streptococcus Group D X66; test: standard agar-dilution MIC assay; format: cell-based; conditions: read-out: MIC
Experimental: as §1

[12] = test system: Streptococcus pyogenes C203; test: standard agar-dilution MIC assay; format: cell-based; conditions: Streptococcus pyogenes, C203
Experimental: as §1

[13] = test system: Staphylococcus aureus S13E; test: microbe, parasite or virus in culture; format: cell-based; conditions: Staphylococcus aureus, S13E
Experimental: as §1

[14] = test system: Streptococcus pneumoniae Park I; test: microbe, parasite or virus in culture; format: cell-based; conditions: Streptococcus pneumoniae
Experimental: as §1

[15] = test system: Bordetella bronchiseptica; test: broth-dilution microtiter MIC test; format: cell-based; conditions: Bordetella bronchiseptica
Experimental: as §1

[16] = test system: Mycoplasma gallisepticum 15E; test: broth-dilution microtiter MIC test; format: cell-based; conditions: Mycoplasmoides gallisepticum, 15E
Experimental: as §1

[17] = test system: Mycoplasma gallisepticum 29C; test: broth-dilution microtiter MIC test; format: cell-based; conditions: Mycoplasmoides gallisepticum, 29C
Experimental: as §1

[18] = test system: Mycoplasma gallisepticum 36H; test: broth-dilution microtiter MIC test; format: cell-based; conditions: Mycoplasmoides gallisepticum, 36H
Experimental: as §1

Mycoplasma hyorhinis 29E = test: broth-dilution microtiter MIC test; format: cell-based; conditions: Mycoplasma, 29E
Experimental: as §1

Mycoplasma synoviae 40A = test: broth-dilution microtiter MIC test; format: cell-based; conditions: Mycoplasmopsis synoviae, 40A
Experimental: as §1

[19] = test system: Pasteurella hemolytica 22C; test: broth-dilution microtiter MIC test; format: cell-based; conditions: Pasteurella, 22C
Experimental: as §1

[20] = test system: Pasteurella hemolytica 23C; test: broth-dilution microtiter MIC test; format: cell-based; conditions: Pasteurella, 23C
Experimental: as §1

[21] = test system: Pasteurella hemolytica 41D; test: broth-dilution microtiter MIC test; format: cell-based; conditions: Pasteurella, 41D
Experimental: as §1

[22] = test system: Pasteurella multocida 17E; test: broth-dilution microtiter MIC test; format: cell-based; conditions: Pasteurella multocida, 17E
Experimental: as §1

[23] = test system: Pasteurella multocida 22A; test: broth-dilution microtiter MIC test; format: cell-based; conditions: Pasteurella multocida, 22A
Experimental: as §1

[24] = test system: Pasteurella multocida 40G; test: broth-dilution microtiter MIC test; format: cell-based; conditions: Pasteurella multocida, 40G
Experimental: as §1

[25] = test system: Pasteurella multocida 60A; test: broth-dilution microtiter MIC test; format: cell-based; conditions: Pasteurella multocida, 60A
Experimental: as §1

[26] = test system: Pasteurella multocida 68C; test: broth-dilution microtiter MIC test; format: cell-based; conditions: Pasteurella multocida, 68C
Experimental: as §1

[27] = test system: Staphylococcus aureus 19C; test: broth-dilution microtiter MIC test; format: cell-based; conditions: Staphylococcus aureus, 19C
Experimental: as §1

Streptococcus sp. 19F = test: broth-dilution microtiter MIC test; format: cell-based; conditions: Streptococcus, SP.19F
Experimental: as §1

[28] = test system: Streptococcus pyogenes C203; test: protection of mice experimentally infected with S. pyogenes C203; format: in vivo
Experimental: The formula 1 compounds have shown in vivo antimicrobial activity against experimentally-induced infections in laboratory animals. When two doses of test compound were administered to mice experimentally infected with S. pyrogenes C203, the activity observed was measured as an ED50 value [effective dose in mg/kg to protect 50% of the test animals: see Warren Wick, et al., J. Bacteriol. 81, 233-235 (1961)].
^a mg/kg × 2; doses given 1 and 4 hours postinfection

SMILES: CCC1OC(=O)CC(O)C(C)C(OC2OC(C)C(O)C(N(C)C)C2O)C(CC=O)CC(C)C(=O)C=CC(C)=CC1COC1OC(C)C(OC(=O)Cc2ccccc2)C(O)C1OC (stereo not drawn) [Compound 30, 4"-O-Phenylacetyl-lactenocin]
- MIC (Escherichia coli EC14): > 128 mg/L
- MIC [1]: 8 mg/L (≈ 9.13 µM)
- MIC [2]: 8 mg/L (≈ 9.13 µM)
- MIC [3]: > 128 mg/L
- MIC [4]: > 128 mg/L
- MIC [5]: 0.5 mg/L (≈ 0.571 µM)
- MIC [6]: 0.5 mg/L (≈ 0.571 µM)
- MIC [7]: 1 mg/L (≈ 1.14 µM)
- MIC [8]: 0.25 mg/L (≈ 0.285 µM)
- MIC [9]: 0.5 mg/L (≈ 0.571 µM)
- MIC [10]: 1 mg/L (≈ 1.14 µM)
- MIC [11]: 0.5 mg/L (≈ 0.571 µM)
- MIC [12]: 0.25 mg/L (≈ 0.285 µM)
- MIC [13]: 0.5 mg/L (≈ 0.571 µM)
- MIC [14]: 0.5 mg/L (≈ 0.571 µM)
- MIC [15]: > 50 mg/L
- MIC [16]: 12.5 mg/L (≈ 14.3 µM)
- MIC [17]: 0.39 mg/L (≈ 0.445 µM)
- MIC [18]: 25 mg/L (≈ 28.5 µM)
- MIC (Mycoplasma hyorhinis 29E): 1.56 mg/L (≈ 1.78 µM)
- MIC (Mycoplasma synoviae 40A): 1.56 mg/L (≈ 1.78 µM)
- MIC [19]: 50 mg/L (≈ 57.1 µM)
- MIC [20]: 25 mg/L (≈ 28.5 µM)
- MIC [21]: 50 mg/L (≈ 57.1 µM)
- MIC [22]: 25 mg/L (≈ 28.5 µM)
- MIC [23]: 25 mg/L (≈ 28.5 µM)
- MIC [24]: 25 mg/L (≈ 28.5 µM)
- MIC [25]: 25 mg/L (≈ 28.5 µM)
- MIC [26]: 12.5 mg/L (≈ 14.3 µM)
- MIC [27]: 6.25 mg/L (≈ 7.13 µM)
- MIC (Streptococcus sp. 19F): 1.56 mg/L (≈ 1.78 µM)

SMILES: CCC1OC(=O)CC(O)C(C)C(OC2OC(C)C(O)C(N(C)C)C2O)C(CC=O)CC(C)C(=O)C=CC(C)=CC1COC1OC(C)C(O)C(OC(=O)Cc2ccccc2)C1OC (stereo not drawn) [Compound 32, 3"-O-Phenylacetyl-lactenocin]
- MIC (Escherichia coli EC14): > 128 mg/L
- MIC [1]: 8 mg/L (≈ 9.13 µM)
- MIC [2]: 8 mg/L (≈ 9.13 µM)
- MIC [3]: > 128 mg/L
- MIC [4]: > 128 mg/L
- MIC [5]: 1 mg/L (≈ 1.14 µM)
- MIC [6]: 0.5 mg/L (≈ 0.571 µM)
- MIC [7]: 2 mg/L (≈ 2.28 µM)
- MIC [8]: 0.25 mg/L (≈ 0.285 µM)
- MIC [9]: 0.5 mg/L (≈ 0.571 µM)
- MIC [10]: 1 mg/L (≈ 1.14 µM)
- MIC [11]: 1 mg/L (≈ 1.14 µM)
- MIC [12]: 0.25 mg/L (≈ 0.285 µM)
- MIC [13]: 1 mg/L (≈ 1.14 µM)
- MIC [14]: 0.5 mg/L (≈ 0.571 µM)
- MIC [15]: > 50 mg/L
- MIC [16]: 12.5 mg/L (≈ 14.3 µM)
- MIC [17]: 0.195 mg/L (≈ 0.223 µM)
- MIC [18]: 25 mg/L (≈ 28.5 µM)
- MIC (Mycoplasma hyorhinis 29E): 1.56 mg/L (≈ 1.78 µM)
- MIC (Mycoplasma synoviae 40A): 1.56 mg/L (≈ 1.78 µM)
- MIC [19]: 25 mg/L (≈ 28.5 µM)
- MIC [20]: 25 mg/L (≈ 28.5 µM)
- MIC [21]: 25 mg/L (≈ 28.5 µM)
- MIC [22]: 25 mg/L (≈ 28.5 µM)
- MIC [23]: 25 mg/L (≈ 28.5 µM)
- MIC [24]: 25 mg/L (≈ 28.5 µM)
- MIC [25]: 25 mg/L (≈ 28.5 µM)
- MIC [26]: 12.5 mg/L (≈ 14.3 µM)
- MIC [27]: 1.56 mg/L (≈ 1.78 µM)
- MIC (Streptococcus sp. 19F): 1.56 mg/L (≈ 1.78 µM)
- ED50 ([28]; C203, sc): 4.4 mg/kg

SMILES: CCC1OC(=O)CC(O)C(C)C(OC2OC(C)C(O)C(N(C)C)C2O)C(CC=O)CC(C)C(=O)C=CC(C)=CC1COC1OC(C)C(OC(=O)COc2ccccc2)C(OC(=O)COc2ccccc2)C1OC (stereo not drawn) [Compound 36, 3",4"-Di-O-phenoxyacetyl-lactenocin]
- MIC (Escherichia coli EC14; agar-dilution, read-out: MIC): > 128 mg/L
- MIC [1]: 32 mg/L (≈ 31.2 µM)
- MIC [2]: 32 mg/L (≈ 31.2 µM)
- MIC ([3]; agar-dilution, read-out: MIC): > 128 mg/L
- MIC ([4]; agar-dilution, read-out: MIC): > 128 mg/L
- MIC [5]: 2 mg/L (≈ 1.95 µM)
- MIC [6]: 2 mg/L (≈ 1.95 µM)
- MIC [7]: 2 mg/L (≈ 1.95 µM)
- MIC [8]: 0.5 mg/L (≈ 0.487 µM)
- MIC [9]: 2 mg/L (≈ 1.95 µM)
- MIC [10]: 2 mg/L (≈ 1.95 µM)
- MIC [11]: 2 mg/L (≈ 1.95 µM)
- MIC [12]: 0.5 mg/L (≈ 0.487 µM)
- MIC [13]: 2 mg/L (≈ 1.95 µM)
- MIC [14]: 1 mg/L (≈ 0.974 µM)
- MIC ([15]; broth-dilution microtiter, read-out: MIC): > 50 mg/L
- MIC [16]: 12.5 mg/L (≈ 12.2 µM)
- MIC [17]: 0.39 mg/L (≈ 0.38 µM)
- MIC [18]: 12.5 mg/L (≈ 12.2 µM)
- MIC (Mycoplasma hyorhinis 29E): 6.25 mg/L (≈ 6.09 µM)
- MIC (Mycoplasma synoviae 40A): 1.56 mg/L (≈ 1.52 µM)
- MIC [19]: 50 mg/L (≈ 48.7 µM)
- MIC [20]: 25 mg/L (≈ 24.4 µM)
- MIC [21]: 25 mg/L (≈ 24.4 µM)
- MIC [22]: 50 mg/L (≈ 48.7 µM)
- MIC [23]: 50 mg/L (≈ 48.7 µM)
- MIC [24]: 50 mg/L (≈ 48.7 µM)
- MIC [25]: 50 mg/L (≈ 48.7 µM)
- MIC [26]: 25 mg/L (≈ 24.4 µM)
- MIC [27]: 1.56 mg/L (≈ 1.52 µM)
- MIC (Streptococcus sp. 19F): 0.78 mg/L (≈ 0.76 µM)
- ED50 ([28]; C203, Oral, mice, mg/kg × 2, doses given 1 and 4 hours postinfection, read-out: ED50): > 100 mg/kg
- ED50 ([28]; C203, sc, Subcutaneous, mice, mg/kg × 2, doses given 1 and 4 hours postinfection, read-out: ED50): 4.3 mg/kg
